# Measurements taken from US20260183302A1, “PDK1 REGULATORY COMPOUND AND COMPOSITION CONTAINING THE SAME” (PROVIBIO CO., LTD., priority 2024, published 2026).
# pIC50: −log10 of the molar value.
# Legend:
# [1] = test system: Human multiple myeloma, KMS26; assay: Relative cell viability, KMS26 (CCK-8); type: cell-based; conditions: KMS26, 1 μM
# Procedure: (§1) After that, 10 μL of CCK-8 was added to each well, and the plate was incubated again at 37° C. in a 5% CO2 incubator for 2 hours.
# (§2) In other words, when the survival rate of untreated cells (DMSO) is set at 100%, the relative cell survival rate in each group treated with the drug at different concentrations is indicated.
# [2] = test system: T cells isolated from mouse spleens; assay: T cell proliferation inhibition (CFSE flow cytometry, anti-CD3/anti-CD28 stimulation); type: cell-based, C57BL/6 mice; conditions: three days
# Procedure, shortened: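 Splenic T cells from 7-week-old C57BL/6 mice, CFSE-labelled, 2× 10^5 cells/well, stimulated with anti-CD3 and anti-CD28 (0.5 μg/mL each). Compound at 10 nM-50 μM in triplicate for three days at 37 °C, 5% CO2; proliferation inhibition (%) derived by flow cytometry.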
# PDK1 = biological target: T1, PDK1 (Homo sapiens, UniProt O15530); assay: IC50 for inhibiting PDK1 kinase activity; type: biochemical
# T1 construct: purchased Promega V9681
# T1 sequence (O15530 1-556): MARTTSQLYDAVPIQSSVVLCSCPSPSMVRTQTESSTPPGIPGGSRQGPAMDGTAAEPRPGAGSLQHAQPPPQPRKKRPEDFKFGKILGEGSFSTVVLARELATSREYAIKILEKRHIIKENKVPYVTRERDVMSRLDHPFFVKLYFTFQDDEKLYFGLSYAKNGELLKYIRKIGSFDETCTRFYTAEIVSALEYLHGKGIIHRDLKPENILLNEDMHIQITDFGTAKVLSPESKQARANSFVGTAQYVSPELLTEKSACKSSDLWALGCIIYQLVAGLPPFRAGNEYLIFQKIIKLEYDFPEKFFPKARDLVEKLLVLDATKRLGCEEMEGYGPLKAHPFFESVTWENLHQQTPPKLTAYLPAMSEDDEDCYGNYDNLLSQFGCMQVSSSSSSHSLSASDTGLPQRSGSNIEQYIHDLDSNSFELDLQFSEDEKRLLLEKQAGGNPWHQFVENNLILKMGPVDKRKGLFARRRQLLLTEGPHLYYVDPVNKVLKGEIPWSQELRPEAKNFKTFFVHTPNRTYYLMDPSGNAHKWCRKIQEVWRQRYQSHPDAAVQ
# Procedure: Additionally, enzyme kinetics analysis was performed to quantitatively analyze the effect of the compounds of the present invention on the enzymatic activity of PDK1 (3-Phosphoinositide-dependent protein kinase-1) and to confirm the inhibition pattern.
# Prior to the analysis, the half-maximal inhibitory concentration (IC50) values of the compounds GO15F, GO86, and GO88 of the present invention for inhibiting PDK1 kinase activity were determined, and the results are shown in FIG. 4.
# [3] = test system: HCT-116 colon cancer cell lines; assay: Matrigel Invasion Assay on HCT-116 colon cancer cell line; type: cell-based, human; conditions: HCT-116, Matrigel, 24 hours treatment, vs DMSO
# Procedure: To evaluate the metastasis inhibitory efficacy of the compounds of the present invention on HCT-116 colon cancer cell lines, an Invasion Assay using Matrigel was performed to assess the cells' invasion ability.
# First, Matrigel was thawed on ice in RPMI-1640 medium without FBS, then diluted with DMEM at a ratio of 1:20.
# The diluted Matrigel mixture was applied to the upper chamber at 100 μl per well, and 750 μl of RPMI-1640 without FBS was added to the lower chamber.
# The plates were then incubated at 37° C. for 1 hour to allow the Matrigel to solidify.
# After coating, the Matrigel mixture in the upper chamber was removed using a pipette, and the chamber was washed with RPMI without FBS.
# Human-derived colorectal cancer cell line HCT-116, obtained from the Korean Cell Bank, was cultured in RPMI-1640 medium containing 10% FBS.
# Following stabilization, the cells were harvested using Trypsin-EDTA treatment, centrifuged at 1,200 rpm for 3 minutes, the supernatant was removed, and the cells were resuspended in the same medium, the medium in the lower chamber was replaced with 750 μl of RPMI-1640 supplemented with 10% FBS, and the cells were seeded into the upper chamber at a density of 5×10^4 cells/well.
# The cells were cultured for 24 hours after attachment, and then the compounds according to the present invention (G078, G085, G086, G088, G089, PBK-2024-010, PBK-2025-010, PBK-2025-013, PBK-2025-016) and the control substance DMSO were diluted and added to the upper chamber after removing the medium.
# Additionally, the medium in the lower chamber was replaced with fresh RPMI-1640 containing FBS, and the culture was continued.
# After an additional 24 hours, the medium was removed, and 1 ml of methanol was added for 10 minutes to fix the cells.
# Subsequently, 1 ml of Hematoxylin was added and reacted for 5 minutes, followed by 1 ml of Eosin, which was reacted for 30 seconds. The sample was then washed with distilled water (DW).
# After staining was complete, any remaining cells in the upper chamber were removed. Finally, the infiltrated cells were observed under a microscope, photographed, and the degree of infiltration was analyzed.
# [4] = test system: Human Osteosarcoma, Saos-2; assay: Relative cell viability, Saos-2 (CCK-8); type: cell-based
# Procedure: Human-derived head and neck cancer cell line Fadu and osteosarcoma cell line Saos-2 were cultured in MEM medium containing 10% FBS, 100 U/mL penicillin, and 100 μg/mL streptomycin.
# Following stabilization, the cells were harvested using Trypsin-EDTA treatment, centrifuged at 1,200 rpm for 3 minutes, the supernatant was removed, and the cells were resuspended in the same medium. They were then seeded into a 96-well plate (Costar 96-well cell culture plate, Corning) at 100 μL per well, and the conditions were adjusted as indicated in Table 5.
# The cells were cultured in a 5% CO2 incubator at 37° C. for 24 hours, and after stabilization of the cells, each plate was washed with 200 μL of PBS per well and treated with 50 μL of culture medium per well. […]
# as §1, §2
substance,measurement,setting,value
"12-[4-(2,2-dimethylmorpholin-4-yl)]dodecyl-N-(6-aminopurine-2-yl) carboxamide [Compound 11]",Relative cell viability (%),[1],31.19%
same,Proliferation inhibition rate (%),[2]; concentration 10 nM,−25.47%
same,Proliferation inhibition rate (%),[2]; concentration 100 nM,100.00%
same,Proliferation inhibition rate (%),[2]; concentration 1 μM,100.00%
same,Proliferation inhibition rate (%),[2]; concentration 10 μM,100.00%
same,Proliferation inhibition rate (%),[2]; concentration 30 μM,100.00%
same,Proliferation inhibition rate (%),[2]; concentration 50 μM,100.00%
same,pIC50,PDK1,7.95
same,number of infiltrated cells (invasion),[3],reduction in the number of infiltrated cells
same,Relative cell viability (%),"[4]; Saos-2, 10 μM, 48 hours",24.98%
same,Relative cell viability (%),"[4]; Saos-2, 30 μM, 48 hours",16.00%
same,Relative cell viability (%),"[4]; Saos-2, 50 μM, 48 hours",36.73%
same,Relative cell viability (%),"[4]; Saos-2, 48 hours",36.73%
